The nature of data set [1]: Anti-inflammatory test models, overall statement. The data set is classed as in vivo, rat. Particulars: using only one test model. The source says: In order to test the anti-inflammatory activities of my copper coordination compounds, the following test models were employed:
(§1) (1) Carrageen in Foot Edema Model as described in Experentia, 6, pp. 469-71, "Zur Frage des Mechanis Mos der Hemmung des Bindegebswachstums durch Cortisone" (1950);
(2) Cotton Wad Granuloma Model as described in J. Pharmacol. Expt'l. Ther., 141, pp. 369-76, "Anti-inflammatory and Antipyretic Activities of Indomethacin, 9-(p-chlorobenzoyl)-5-Methoxy-2-Methyl-Indole-3-Acetic Acid" (1963); and
(3) Polyarthritis Model as described in Nature, 224, pp. 1320-21, "Effect of Prostaglandin E2 on Adjuvant Arthritis" (1969).

Data set [2] in a line: Carrageenin Foot Edema Model. Particulars: hydrocortisone comparison; model not given. It is filed as in vivo, rat (male, Sprague Dawley). The method, then: as §1
The foregoing literature references were followed in the following tests unless otherwise stated and they are incorporated by reference herein. Each test model will only be briefly described. Each test model is a recognized and accepted model for testing drugs for the treatment of arthritis.
In this test model test rats were injected with carrageenin in a hind paw one hour after administration of the copper coordination compound. The carrageenin induced inflammation. The rats were male, of the Sprague Dawley variety and weighed on the average 120 grams. The copper coordination compounds were first introduced subcutaneously. The dosages were compounded as follows:
The suspending agent was Tween 80, a nonionic surfactant sold by the Atlas Powder Company. A full description of it is contained at p. 648 of Remingtons Practice of Pharmacy (11th ed., Martin & Cook, The Mack Publishing Co., Easton Pa. 1956). Generally they may be described as a complex mixture of polyoxyethylene ethers of mixed oleic esters of sorbitol anhydrides. The initial screening dosage was 25 mg of the copper coordination compound given in one injection to ten rats. Compounds which were active received further testing at 5.0 mg and lower dosages. Each dosage was administered to at least ten rats. A dose was rated active if it caused a significant decrease (P<0.05) in the circumference of the feet injected with carrageenin six hours after administration. […] As a reference standard, saline solution plus suspending agent was subcutaneously administered to each of the ten rats.
A general note: The carrageenan paw model is a standard test of acute inflammation.

The next data set is described as follows: in vivo. The note with it: for TI CFE / TI PA / selectivity ratio: ratio of lethal dose to effective dose. The source says:
In addition to the foregoing anti-inflammatory and anti-ulcer tests, several LD50 tests [performed in accordance with Miller et al, Proceed. of The Society of Expt'l. Medicine, 57, p.

For `N[C@@H](Cc1c[nH]c2ccccc12)C(=O)[O-].N[C@@H](Cc1c[nH]c2ccccc12)C(=O)[O-].[Cu+2]` (racemic) [Example 16, Bis(D,L-tryptophanato(O,N)copper(II)], the “anti-inflammatory activity at the initial screening tests” value in data set [1] is “no anti-inflammatory activity”.
Still for that read-out and setting: then `NC(Cc1c[nH]c2ccccc12)C(=O)[O-].NC(Cc1c[nH]c2ccccc12)C(=O)[O-].[Cu+2]` [Example 1, Bis-L-tryptophanato(O,N)copper(II)], with “no anti-inflammatory activity”.
For the molecule `Nc1ccccc1C(=O)[O-].Nc1ccccc1C(=O)[O-].[Cu+2]` [Example 3, Bisanthranilato(O,N)copper(II)], in data set [2], the “% potency compared with hydrocortisone” value was 60%. The LD50 in “in vivo” (SC) was 750 ± 106 mpk. Further, the “TI CFE” value in the data set “in vivo” (CFE (carrageenin foot edema)) is reported as 150. Besides, in “in vivo” (PA (polyarthritis)), the “TI PA” value is recorded as 750.
As for `CC(C)c1cc(C(=O)[O-])c(O)c(C(C)C)c1.CC(C)c1cc(C(=O)[O-])c(O)c(C(C)C)c1.[Cu+2]` [Example 4], in data set [2], the “% potency compared with hydrocortisone” value is given as 50%. In addition, the LD50 in “in vivo” (SC) worked out at 240 ± 33 mpk. Besides, in “in vivo” (CFE (carrageenin foot edema)), the “TI CFE” value is 48. Moreover, the “TI PA” value in “in vivo” (PA (polyarthritis)) came out at 240.
Regarding `CC(=O)Oc1ccccc1C(=O)[O-].CC(=O)Oc1ccccc1C(=O)[O-].CC(=O)Oc1ccccc1C(=O)[O-].CC(=O)Oc1ccccc1C(=O)[O-].[Cu+2].[Cu+2]` [Example 5, Tetra(μ-acetylsalicylato)biscopper(II)], in data set [2], the “% potency compared with hydrocortisone” value stood at 130%. This molecule also yielded an LD50 in “in vivo” (SC) of 760 ± 100 mpk. In addition, the “TI CFE” value in “in vivo” (CFE (carrageenin foot edema)) turned out to be 150. Besides, in “in vivo” (PA (polyarthritis)), the “TI PA” value came to 760.
Turning to `CC(=O)Oc1ccccc1C(=O)O` [aspirin, acetylsalicylic acid], in data set [2], the “% potency compared with hydrocortisone” value turned out to be 6%. Besides, the LD50 in the data set “in vivo” (in vivo) was 790 mg/kg; in the data set “in vivo” (in vivo, po), 1500 mg/kg.
As to `CC(=O)[O-].CC(=O)[O-].[Cu+2]` [cupric acetate], the “% potency compared with hydrocortisone” value in data set [2] turned out to be 340%. In “in vivo” (SC), this molecule registered an LD50 of 350 mpk. Moreover, the “TI CFE” value in “in vivo” (CFE (carrageenin foot edema)) is recorded as 70. The “TI PA” value in the data set “in vivo” (PA (polyarthritis)) came to 0.
Take `O=C(O)c1cccnc1Nc1cccc(C(F)(F)F)c1` [tpan, 2[3(trifluoro-methyl)phenyl]aminonicotinic acid]: in data set [2], the “% potency compared with hydrocortisone” value is 31%. Besides, the selectivity ratio in “in vivo” (in vivo, TI CFE, CFE (carrageenin foot edema)) was 15; in “in vivo” (in vivo, TI PA, PA (polyarthritis)) it was 74. Further, in “in vivo” (in vivo, po), the LD50 was determined as 370 ± 25 mg/kg.
Take “(3-p-chlorophenyl-3,4,5,6-tetrahydro-β-carboline-5-carboxylato)2n-(aqua)2n -copper(II)n [Example 30]”: the “anti-inflammatory activity at the initial screening tests” value in data set [1] was “no anti-inflammatory activity”.
The same measure, in the same setting: in the case of “(17-Hydroxy-3-oxo-17α-pregn-4,6-diene-21-carboxalato)2n -(aqua)2n -copper(II)n [Example 41]” it was “no anti-inflammatory activity”; in that of “(D-penicillaminato)2n -(aqua)2n -copper(II)n [Example 8]”, “no anti-inflammatory activity”.
Consider “[2[3(trifluoromethyl)phenyl]aminonicotinato]2n -(aqua)n -copper(II)n [Example 6]”, for which, in data set [2], the “% potency compared with hydrocortisone” value stood at 180%. The LD50 in “in vivo” (SC) came to 650 ± 80 mpk. Further, the “TI CFE” value in the data set “in vivo” (CFE (carrageenin foot edema)) amounted to 130. Further, in “in vivo” (PA (polyarthritis)), the “TI PA” value came to 650.

The values above are taken from patent publication US6306846A, “Anti-inflammatory and anti-ulcer compounds and process” (priority 1995, dated 2001).
